Results reported in ChEMBL document CHEMBL1909046, “DrugMatrix in vitro pharmacology data”.

Legend:
[1] = molecular target: T1, C-C chemokine receptor type 4 (Homo sapiens, UniProt P51679); type: cell membranes, Membrane; settings: chem-1; also: in other assays of this panel Not Active means under 50% inhibition at 10 µM
T1 sequence (P51679 whole entry): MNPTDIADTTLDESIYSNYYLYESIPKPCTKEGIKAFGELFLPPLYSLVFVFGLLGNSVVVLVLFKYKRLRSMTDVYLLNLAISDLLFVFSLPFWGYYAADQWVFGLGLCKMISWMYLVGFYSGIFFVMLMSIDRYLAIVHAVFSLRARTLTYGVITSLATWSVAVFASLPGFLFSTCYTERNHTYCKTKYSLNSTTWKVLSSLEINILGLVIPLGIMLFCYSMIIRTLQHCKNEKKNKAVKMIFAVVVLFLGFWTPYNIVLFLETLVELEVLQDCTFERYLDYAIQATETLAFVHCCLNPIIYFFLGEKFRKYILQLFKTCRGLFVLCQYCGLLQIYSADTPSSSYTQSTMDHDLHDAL

Adenosine receptor A2a = Adenosine receptor A2a (Homo sapiens, UniProt P29274); test: DRUGMATRIX: Adenosine A2A radioligand binding (ligand: […]); type: cell membranes, HEK293, Membrane; settings: hek293; Not Active = under 50% inhibition at 10 µM
D(1A) dopamine receptor = D(1A) dopamine receptor (Homo sapiens, UniProt P21728); test: DRUGMATRIX: Dopamine D1 radioligand binding (ligand: [3H] SCH-23390); type: cell membranes, CHO, Membrane; settings: cho; Not Active = under 50% inhibition at 10 µM
Cytochrome P450 1A2 = molecular target: T2, Cytochrome P450 1A2 (Homo sapiens, UniProt P05177); settings: bti-tn-5b1-4; also: in other assays of this panel Not Active means under 50% inhibition at 10 µM
T2 sequence (P05177 whole entry): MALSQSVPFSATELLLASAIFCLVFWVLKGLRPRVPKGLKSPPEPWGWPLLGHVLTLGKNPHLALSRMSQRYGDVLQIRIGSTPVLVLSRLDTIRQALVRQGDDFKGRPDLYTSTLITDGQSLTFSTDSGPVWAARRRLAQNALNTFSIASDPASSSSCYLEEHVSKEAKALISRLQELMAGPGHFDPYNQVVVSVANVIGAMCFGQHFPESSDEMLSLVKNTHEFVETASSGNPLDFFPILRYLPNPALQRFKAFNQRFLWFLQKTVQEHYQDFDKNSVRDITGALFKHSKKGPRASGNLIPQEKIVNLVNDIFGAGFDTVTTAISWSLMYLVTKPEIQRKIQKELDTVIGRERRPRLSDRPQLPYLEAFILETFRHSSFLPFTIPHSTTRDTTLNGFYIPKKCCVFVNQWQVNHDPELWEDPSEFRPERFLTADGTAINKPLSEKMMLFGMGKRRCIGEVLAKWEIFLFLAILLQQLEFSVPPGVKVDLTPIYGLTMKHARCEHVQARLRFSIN

[2] = DRUGMATRIX: beta-Lactamase enzyme inhibition (substrate: Nitrocefin); design: species or system Bacillus cereus; settings: Not Active = under 50% inhibition at 10 µM
[3] = DRUGMATRIX: Glutamate, AMPA radioligand binding (ligand: [3H] AMPA); type: cell membranes, Rattus norvegicus, Wistar, Cerebral cortex, Membrane; settings: Not Active = under 50% inhibition at 10 µM
D(4) dopamine receptor = molecular target: T3, D(4) dopamine receptor (Homo sapiens, UniProt P21917); test: DRUGMATRIX: Dopamine D4.2 radioligand binding (ligand: [3H] Spiperone); type: cell membranes, CHO-K1, Membrane; settings: cho-k1; Not Active = under 50% inhibition at 10 µM
T3 sequence (P21917 whole entry): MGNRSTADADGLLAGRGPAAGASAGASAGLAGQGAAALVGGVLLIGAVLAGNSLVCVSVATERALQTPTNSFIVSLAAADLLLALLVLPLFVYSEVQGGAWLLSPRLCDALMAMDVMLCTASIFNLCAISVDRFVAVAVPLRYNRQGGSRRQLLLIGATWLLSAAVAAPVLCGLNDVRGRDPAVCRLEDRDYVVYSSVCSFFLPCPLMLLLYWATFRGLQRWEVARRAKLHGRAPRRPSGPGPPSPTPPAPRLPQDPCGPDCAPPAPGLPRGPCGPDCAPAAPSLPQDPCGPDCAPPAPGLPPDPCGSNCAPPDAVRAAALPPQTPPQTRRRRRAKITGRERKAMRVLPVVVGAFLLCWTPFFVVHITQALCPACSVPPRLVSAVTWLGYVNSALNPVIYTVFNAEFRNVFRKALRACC

[4] = molecular target: Tyrosine-protein kinase Fyn (Homo sapiens, UniProt P06241); test: biochemical; type: cell-based, Insect cells; settings: insect cells;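 also: enzymatic inhibition of Fyn kinase activity measured with Poly(Glu:Tyr) as the phosphorylation substrate; in other assays of this panel Not Active means under 50% inhibition at 10 µM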
Chain of Tyrosine-protein kinase Fyn (P06241 whole entry): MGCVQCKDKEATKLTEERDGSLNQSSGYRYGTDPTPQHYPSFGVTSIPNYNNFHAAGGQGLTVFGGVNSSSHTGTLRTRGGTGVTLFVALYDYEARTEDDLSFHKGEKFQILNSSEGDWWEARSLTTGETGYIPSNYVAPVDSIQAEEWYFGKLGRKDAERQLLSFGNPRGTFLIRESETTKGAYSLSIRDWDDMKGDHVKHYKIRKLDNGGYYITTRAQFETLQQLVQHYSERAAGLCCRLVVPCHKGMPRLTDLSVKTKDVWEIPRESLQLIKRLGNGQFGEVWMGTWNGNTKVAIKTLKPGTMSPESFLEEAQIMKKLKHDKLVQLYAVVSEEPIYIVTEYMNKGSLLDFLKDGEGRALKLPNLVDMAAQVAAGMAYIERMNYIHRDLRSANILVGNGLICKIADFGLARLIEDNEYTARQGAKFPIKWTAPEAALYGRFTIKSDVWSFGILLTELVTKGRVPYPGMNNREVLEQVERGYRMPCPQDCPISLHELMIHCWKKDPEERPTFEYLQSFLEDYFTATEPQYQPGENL

Chain of Adenosine receptor A2a (P29274 whole entry): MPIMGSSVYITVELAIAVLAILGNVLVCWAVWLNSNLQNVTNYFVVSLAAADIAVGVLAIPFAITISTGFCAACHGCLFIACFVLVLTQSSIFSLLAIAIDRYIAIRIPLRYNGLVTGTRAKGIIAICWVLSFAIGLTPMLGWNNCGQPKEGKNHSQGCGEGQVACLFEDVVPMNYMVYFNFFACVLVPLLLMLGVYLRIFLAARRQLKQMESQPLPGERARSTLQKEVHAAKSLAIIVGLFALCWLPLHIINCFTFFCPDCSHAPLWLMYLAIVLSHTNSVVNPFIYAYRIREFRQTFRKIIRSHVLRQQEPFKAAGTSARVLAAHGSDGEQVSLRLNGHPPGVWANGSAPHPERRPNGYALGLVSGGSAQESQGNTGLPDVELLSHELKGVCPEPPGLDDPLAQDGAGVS
Chain of D(1A) dopamine receptor (P21728 whole entry): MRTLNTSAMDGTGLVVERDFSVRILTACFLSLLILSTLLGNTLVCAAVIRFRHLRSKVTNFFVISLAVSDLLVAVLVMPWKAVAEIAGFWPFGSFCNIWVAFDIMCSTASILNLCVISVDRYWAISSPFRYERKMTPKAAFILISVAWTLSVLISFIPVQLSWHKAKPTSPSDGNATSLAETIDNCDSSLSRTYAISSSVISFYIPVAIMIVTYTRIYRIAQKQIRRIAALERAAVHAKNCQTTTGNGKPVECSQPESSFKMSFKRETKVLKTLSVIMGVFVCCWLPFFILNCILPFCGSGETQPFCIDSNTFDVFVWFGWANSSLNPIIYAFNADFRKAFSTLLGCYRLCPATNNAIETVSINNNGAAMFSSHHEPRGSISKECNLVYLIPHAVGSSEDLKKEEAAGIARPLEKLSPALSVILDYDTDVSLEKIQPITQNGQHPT

Cc1cccc(C)c1OCC(C)N (stereo not given) [MEXILETINE]
Not Active: IC50 [1] | IC50 (Adenosine receptor A2a) | IC50 (D(1A) dopamine receptor) | IC50 (Cytochrome P450 1A2) | Ki (Cytochrome P450 1A2) | IC50 [2] | Ki [2] | IC50 [3] | Ki [3] | IC50 (D(4) dopamine receptor) | IC50 [4]

Nc1cc(N2CCCCC2)nc(N)[n+]1[O-] [MINOXIDIL]
Not Active: IC50 [1] | IC50 (Adenosine receptor A2a) | IC50 (D(1A) dopamine receptor) | IC50 (Cytochrome P450 1A2) | Ki (Cytochrome P450 1A2) | IC50 [2] | Ki [2] | IC50 [3] | Ki [3] | IC50 (D(4) dopamine receptor) | IC50 [4]

CO[C@H]1/C=C/O[C@@]2(C)Oc3c(C)c(O)c4c(O)c(c(/C=N/N5CCN(C6CCCC6)CC5)c(O)c4c3C2=O)NC(=O)/C(C)=C\C=C\[C@H](C)[C@H](O)[C@@H](C)[C@@H](O)[C@@H](C)[C@H](OC(C)=O)[C@@H]1C [RIFAPENTINE]
Not Active: IC50 [1] | IC50 (Adenosine receptor A2a) | IC50 (D(1A) dopamine receptor) | IC50 (Cytochrome P450 1A2) | Ki (Cytochrome P450 1A2) | IC50 [2] | Ki [2] | IC50 [3] | Ki [3] | IC50 (D(4) dopamine receptor) | IC50 [4]

CCCCOc1cc(CC2CNC(=O)N2)ccc1OC (stereo not given) [RO-201724]
Not Active: IC50 [1] | IC50 (Adenosine receptor A2a) | IC50 (D(1A) dopamine receptor) | IC50 (Cytochrome P450 1A2) | Ki (Cytochrome P450 1A2) | IC50 [2] | Ki [2] | IC50 [3] | Ki [3] | IC50 (D(4) dopamine receptor) | IC50 [4]

CC[C@@H](C(=O)[C@@H](C)[C@@H](O)[C@H](C)[C@@H]1O[C@@H]([C@@H](CC)C(=O)O)CC[C@@H]1C)[C@H]1O[C@]2(C=C[C@@H](O)[C@]3(CC[C@@](C)([C@H]4CC[C@](O)(CC)[C@H](C)O4)O3)O2)[C@H](C)C[C@@H]1C [SALINOMYCIN]
Not Active: IC50 [1] | IC50 (Adenosine receptor A2a) | IC50 (D(1A) dopamine receptor) | IC50 (Cytochrome P450 1A2) | Ki (Cytochrome P450 1A2) | IC50 [2] | Ki [2] | IC50 [3] | Ki [3] | IC50 (D(4) dopamine receptor) | IC50 [4]

O=C(Oc1ccccc1C(=O)O)c1ccccc1O [SALSALATE]
Not Active: IC50 [1] | IC50 (Adenosine receptor A2a) | IC50 (D(1A) dopamine receptor) | IC50 (Cytochrome P450 1A2) | Ki (Cytochrome P450 1A2) | IC50 [2] | Ki [2] | IC50 [3] | Ki [3] | IC50 (D(4) dopamine receptor) | IC50 [4]

O=C(O)c1cn(-c2ccc(F)cc2)c2cc(N3CCNCC3)c(F)cc2c1=O [SARAFLOXACIN]
Not Active: IC50 [1] | IC50 (Adenosine receptor A2a) | IC50 (D(1A) dopamine receptor) | IC50 (Cytochrome P450 1A2) | Ki (Cytochrome P450 1A2) | IC50 [2] | Ki [2] | IC50 [3] | Ki [3] | IC50 (D(4) dopamine receptor) | IC50 [4]

CC(C)NCC(O)c1ccc(NS(C)(=O)=O)cc1 (stereo not given) [SOTALOL]
Not Active: IC50 [1] | IC50 (Adenosine receptor A2a) | IC50 (D(1A) dopamine receptor) | IC50 (Cytochrome P450 1A2) | Ki (Cytochrome P450 1A2) | IC50 [2] | Ki [2] | IC50 [3] | Ki [3] | IC50 (D(4) dopamine receptor) | IC50 [4]

O.O.O.O.O.O.[Cl-].[Cl-].[Sr+2] [STRONTIUM CHLORIDE HEXAHYDRATE]
Not Active: IC50 [1] | IC50 (Adenosine receptor A2a) | IC50 (D(1A) dopamine receptor) | IC50 (Cytochrome P450 1A2) | Ki (Cytochrome P450 1A2) | IC50 [2] | Ki [2] | IC50 [3] | Ki [3] | IC50 (D(4) dopamine receptor) | IC50 [4]

O=C1C(CC[S+]([O-])c2ccccc2)C(=O)N(c2ccccc2)N1c1ccccc1 (stereo not given) [SULFINPYRAZONE]
Not Active: IC50 [1] | IC50 (Adenosine receptor A2a) | IC50 (D(1A) dopamine receptor) | IC50 (Cytochrome P450 1A2) | Ki (Cytochrome P450 1A2) | IC50 [2] | Ki [2] | IC50 [3] | Ki [3] | IC50 (D(4) dopamine receptor) | IC50 [4]
